Measured values published in patent US20250346600A1, “TRICYCLIC DERIVATIVES AND RELATED USES” (MOMA Therapeutics, Inc., priority 2023, published 2025).
Read-outs that look alike come from different tables or passages of the source.

Legend:
[1] = biological target: T1, Full length WRN protein (aa 2-1432) (Homo sapiens (Human), UniProt Q14191); experiment: WRN ATPase ADP-Glo biochemical assay, Assay Format A (10 μM ATP); settings: 0.25 nM WRN, 100 nM C6.18 ssDNA, 30 min preincubation, read-out: ATPase ADPGlo AC50 (uM)- Assay Format A
T1 sequence (Q14191 2-1432): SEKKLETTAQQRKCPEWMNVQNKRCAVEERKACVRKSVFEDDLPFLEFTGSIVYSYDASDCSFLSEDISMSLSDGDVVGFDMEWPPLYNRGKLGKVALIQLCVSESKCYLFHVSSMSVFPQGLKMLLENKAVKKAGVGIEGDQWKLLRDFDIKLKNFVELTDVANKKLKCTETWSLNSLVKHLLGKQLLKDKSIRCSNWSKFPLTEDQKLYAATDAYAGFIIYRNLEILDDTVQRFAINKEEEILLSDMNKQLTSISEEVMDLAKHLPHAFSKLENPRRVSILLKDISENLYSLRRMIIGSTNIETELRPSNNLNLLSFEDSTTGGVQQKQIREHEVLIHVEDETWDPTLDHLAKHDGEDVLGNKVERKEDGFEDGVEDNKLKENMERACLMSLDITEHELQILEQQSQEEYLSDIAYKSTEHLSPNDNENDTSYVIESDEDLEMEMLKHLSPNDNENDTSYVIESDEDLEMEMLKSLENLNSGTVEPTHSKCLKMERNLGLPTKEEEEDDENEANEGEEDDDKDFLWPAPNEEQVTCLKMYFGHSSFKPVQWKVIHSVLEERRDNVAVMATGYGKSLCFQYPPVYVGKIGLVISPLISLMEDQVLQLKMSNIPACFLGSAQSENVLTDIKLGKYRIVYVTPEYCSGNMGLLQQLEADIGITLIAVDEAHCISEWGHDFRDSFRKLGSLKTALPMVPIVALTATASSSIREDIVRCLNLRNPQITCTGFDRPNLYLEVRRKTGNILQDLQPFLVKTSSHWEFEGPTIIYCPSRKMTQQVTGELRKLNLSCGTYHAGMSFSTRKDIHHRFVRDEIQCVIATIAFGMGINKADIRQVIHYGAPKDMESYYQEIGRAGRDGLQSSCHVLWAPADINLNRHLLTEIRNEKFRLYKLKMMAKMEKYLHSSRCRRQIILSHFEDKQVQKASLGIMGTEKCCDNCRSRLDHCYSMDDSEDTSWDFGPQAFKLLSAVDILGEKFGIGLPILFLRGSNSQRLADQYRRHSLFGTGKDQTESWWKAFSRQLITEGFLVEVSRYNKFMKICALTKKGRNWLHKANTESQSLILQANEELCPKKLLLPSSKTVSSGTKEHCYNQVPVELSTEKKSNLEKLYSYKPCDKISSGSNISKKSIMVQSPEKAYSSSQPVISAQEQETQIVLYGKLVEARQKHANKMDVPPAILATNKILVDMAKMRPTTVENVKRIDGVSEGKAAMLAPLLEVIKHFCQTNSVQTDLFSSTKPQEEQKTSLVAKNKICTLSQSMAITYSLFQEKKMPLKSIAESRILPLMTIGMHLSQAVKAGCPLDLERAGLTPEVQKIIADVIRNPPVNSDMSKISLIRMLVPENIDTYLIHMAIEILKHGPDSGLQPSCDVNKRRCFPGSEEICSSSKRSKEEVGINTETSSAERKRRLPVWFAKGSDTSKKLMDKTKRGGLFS
Excerpt: Full length Werner helicase construct (Uniprot: Q14191) with an N-terminal FLAG-AVI-TEV tag was expressed using the Sf9 cell/baculovirus expression system. The harvested cell pellet was resuspended and lysed in a glass homogenizer. After insoluble material was removed by centrifugation, the helicase protein was first purified with FLAG affinity resin and then further purified through a size-exclusion chromatography column. Peak fractions containing the purified protein were concentrated, split into aliquots and frozen in liquid nitrogen to be thawed before use. Biochemical Assay Description (ATPase activity)-Assay Format A WRN activity was measured using an ATPase assay. Full length WRN protein (aa 2-1432) (production described separately) was used for the biochemical activity assays. The 39-mer ssDNA “C6.18” [NT] was purchased from IDT and used as a substrate. Quantification of ATP hydrolysis was evaluated using the ADP-Glo assay kit (Promega, Madison, WI). An enzyme titration time-course was performed to determine the optimal assay conditions. […] To evaluate the inhibitory effects of the compounds, 11-point 3-fold serial dilutions were prepared in DMSO. 50 nL of each concentration in duplicate was preincubated for 30 minutes in a 384-well microplate (Greiner #784075) with 5 μL of 0.5 nM WRN in assay buffer. The reaction was initiated by adding 5 μL of 200 nM C6.18 DNA with 20 μM ATP and was allowed to proceed for 30 minutes at room temperature. The reaction was stopped with 10 μL ADP-Glo reagent for 1 hour to remove unreacted ATP. Lastly, 20 μL ATP detection reagent was added and incubated for 1 hour to generate the luminescence signal. Control wells included “high controls” with no inhibition (DMSO, no compound) and “low controls” with maximum inhibition (no WRN). Luminescence was recorded on a PHERAstar (BMG Labtech, Ortenberg, Germany). Data was fit using the “Smart Fit” method within the Genedata Screener Software (Basel, Switzerland) to obtain IC50 values using four-parameter fits. Reported IC50s are the geometric means of at least two independent trials.

[2] = biological target: T1, Full length WRN protein (aa 2-1432); experiment: WRN ATPase ADP-Glo biochemical assay, Assay Format B (100 μM ATP); settings: 0.25 nM WRN, 100 nM C6.18 ssDNA, 60 min preincubation, read-out: ATPase ADPGlo AC50 (uM)- Assay Format B
HCT116 cells = experiment: HCT116 (MSI) 7 day viability, CellTiter Glo; assay type: cell-based; settings: 7 days, read-out: HCT116 (MSI) Viability 7 Day Abs AC50
Procedure, shortened: (§1)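 Seven-day viability is assessed with CellTiter Glo after compounds, diluted in ten 3-fold steps in DMSO, are exposed to HCT116 (50 cells/well) or HT29 (500 cells/well). Reported IC50 is the geometric mean of at least two independent runs.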

HT29 cells = experiment: HT29 (MSS) 7 day viability, CellTiter Glo; assay type: cell-based; settings: 7 days, read-out: HT29 (MSS) Viability 7 Day CTGAbs AC50
Procedure, shortened: as §1

Question: How did the AC50 [1] turn out when `C=CC(=O)N1CCc2nn(-c3ccc(C4CC4)cc3)c3c2C(C1)N(C(=O)c1cnc(Br)cc1C)CC3` (centres unmarked) [Compound 113, 1-(5-(6-bromo-4-methylnicotinoyl)-2-(4-cyclopropylphenyl)-2,3,4,5,5a,6,8,9-octahydro-7H-1,2,5,7-tetraazabenzo[cd]azulen-7-yl)prop-2-en-1-one] was run?
Answer: Its AC50 is 0.005 to 0.015 µM.

Question: `C=CC(=O)N1CCc2nn(-c3ccc(C4CC4)cc3)c3c2C(C1)N(C(=O)c1cnc2[nH]c(C(F)(F)F)nc2c1)CC3` (centres unmarked) [Compound 124, 1-(2-(4-cyclopropylphenyl)-5-(2-(trifluoromethyl)-3H-imidazo[4,5-b]pyridine-6-carbonyl)-2,3,4,5,5a,6,8,9-octahydro-7H-1,2,5,7-tetraazabenzo[cd]azulen-7-yl)prop-2-en-1-one] was tested. Which AC50 [1] did it give?
Answer: The AC50 was 0.015 to 0.055 µM.

Question: `C=CC(=O)N1CCc2nn(-c3ccc(C4CC4)cc3)c3c2C(C1)N(C(=O)c1cnc2c(c1)c(C(F)(F)F)nn2C)CC3` (centres unmarked) [Compound 111, 1-(2-(4-cyclopropylphenyl)-5-(1-methyl-3-(trifluoromethyl)-1H-pyrazolo[3,4-b]pyridine-5-carbonyl)-2,3,4,5,5a,6,8,9-octahydro-7H-1,2,5,7-tetraazabenzo[cd]azulen-7-yl)prop-2-en-1-one] was tested. Which AC50 [1] did it give?
Answer: Its AC50 is 0.015 to 0.055 µM.

Question: `C=CC(=O)N1CCc2nn(-c3ccc(C4CC4)cc3)c3c2C(C1)N(C(=O)C12CC(C(F)(F)F)(C1)C2)CC3` (centres unmarked) [Compound 121, 1-(2-(4-cyclopropylphenyl)-5-(3-(trifluoromethyl)bicyclo [1.1.1]pentane-1-carbonyl)-2,3,4,5,5a,6,8,9-octahydro-7H-1,2,5,7-tetraazabenzo[cd]azulen-7-yl)prop-2-en-1-one] was tested. Which AC50 [1] did it give?
Answer: Its AC50 is 0.015 to 0.055 µM.

Question: `C=CC(=O)N1CCc2nn(-c3ccc(C4CC4)cc3)c3c2C(C1)N(C(=O)c1ccc(Br)nn1)CC3` (centres unmarked) [Compound 108, 1-(5-(6-bromopyridazine-3-carbonyl)-2-(4-cyclopropylphenyl)-2,3,4,5,5a,6,8,9-octahydro-7H-1,2,5,7-tetraazabenzo[cd]azulen-7-yl)prop-2-en-1-one] was tested. Which AC50 [1] did it give?
Answer: Its AC50 is 0.005 to 0.015 µM.

Question: What does the source list for `C=CC(=O)N1CCc2nn(-c3ccc(C4CC4)c(F)c3O)c3c2C(C1)N(C(=O)c1cnc(Br)c(F)c1N)CC3` (centres unmarked) [Compound 229, 1-(5-(4-amino-6-bromo-5-fluoronicotinoyl)-2-(4-cyclopropyl-3-fluoro-2-hydroxyphenyl)-2,3,4,5,5a,6,8,9-octahydro-7H-1,2,5,7-tetraazabenzo[cd]azulen-7-yl)prop-2-en-1-one]?
Answer: AC50 [2]: 0.015 to 0.055 µM; AC50 (HCT116 cells): 1 to 100 nM; AC50 (HT29 cells): > 3000 nM

Question: Which results are given for `C=CC(=O)N1CCc2nn(-c3ccc(C4CCC4)cc3O)c3c2C(C1)N(C(=O)c1cnc(Cl)c(O)c1)CC3` (centres unmarked) [Compound 140, 1-(5-(6-chloro-5-hydroxynicotinoyl)-2-(4-cyclobutyl-2-hydroxyphenyl)-2,3,4,5,5a,6,8,9-octahydro-7H-1,2,5,7-tetraazabenzo[cd]azulen-7-yl)prop-2-en-1-one]?
Answer: AC50 [2]: 0.005 to 0.015 µM; AC50 (HCT116 cells; Homo sapiens, HCT-116, 168 h): 1 to 100 nM; AC50 (HT29 cells; Homo sapiens, HT-29, 168 h): > 3000 nM

Question: For `C=CC(=O)N1CCc2nn(-c3cc(F)c(C4CC4)cc3O)c3c2C(C1)N(C(=O)c1cnc(C(C)(F)F)c(F)c1N)CC3` (centres unmarked) [Compound 253, 1-[7-[4-amino-6-(1,1-difluoroethyl)-5-fluoro-pyridine-3-carbonyl]-3-(4-cyclopropyl-5-fluoro-2-hydroxy-phenyl)-2,3,7,10-tetrazatricyclo[6.4.1.04,1 3]trideca-1,4(13)-dien-10-yl]prop-2-en-1-one], which AC50 [2] is on record?
Answer: Its AC50 is 0.005 to 0.015 µM.

Question: What about the AC50 (HCT116 cells; Homo sapiens, HCT-116, 168 h) of the same compound?
Answer: Its AC50 is 1 to 100 nM.

Question: What about the AC50 (HT29 cells; Homo sapiens, HT-29, 168 h) of the same compound?
Answer: Its AC50 is over 3000 nM.

Question: How did the AC50 [2] turn out when `C=CC(=O)N1CC(OC2CN(C(C)=O)C2)c2nn(-c3ccc(C4CCC4)cc3)c3c2C(C1)N(C(=O)c1ccc(C(F)(F)F)nc1)CC3` (centres unmarked) [Compound 205, 1-(9-((1-acetylazetidin-3-yl)oxy)-2-(4-cyclobutylphenyl)-5-(6-(trifluoromethyl)nicotinoyl)-2,3,4,5,5a,6,8,9-octahydro-7H-1,2,5,7-tetraazabenzo[cd]azulen-7-yl)prop-2-en-1-one] was run?
Answer: The AC50 was 0.005 to 0.015 µM.

Question: And the AC50 (HCT116 cells; Homo sapiens, HCT-116, 168 h)?
Answer: The AC50 was 1 to 100 nM.

Question: What about the AC50 (HT29 cells; Homo sapiens, HT-29, 168 h) of the same compound?
Answer: The AC50 was over 3000 nM.
